According to BigSolDB 2.1:

With `COc1ccc2[nH]cc(CCNC(C)=O)c2c1` as the compound, how does the solubility (mole fraction) (in 2-ethoxyethanol, 278.15 K) read?
The solubility (mole fraction) was 0.0643.

And the solubility (mole fraction) (in 2-ethoxyethanol, 283.15 K)?
The solubility (mole fraction) was 0.0729.

And the solubility (mole fraction) (in 2-ethoxyethanol, 288.15 K)?
Its solubility (mole fraction) is 0.0809.

And the solubility (mole fraction) (in 2-ethoxyethanol, 293.15 K)?
Its solubility (mole fraction) is 0.0919.

What about the solubility (mole fraction) (in 2-ethoxyethanol, 298.15 K) of the same compound?
Its solubility (mole fraction) is 0.103.

What about the solubility (mole fraction) (in 2-ethoxyethanol, 303.15 K) of the same compound?
The solubility (mole fraction) was 0.113.

What about the solubility (mole fraction) (in 2-ethoxyethanol, 308.15 K) of the same compound?
The solubility (mole fraction) was 0.126.

What about the solubility (mole fraction) (in 2-ethoxyethanol, 313.15 K) of the same compound?
Its solubility (mole fraction) is 0.138.

What about the solubility (mole fraction) (in 2-ethoxyethanol, 318.15 K) of the same compound?
The solubility (mole fraction) was 0.152.

What about the solubility (mole fraction) (in 2-ethoxyethanol, 323.15 K) of the same compound?
Its solubility (mole fraction) is 0.168.

What about the solubility (mole fraction) (in 2-methoxyethanol, 278.15 K) of the same compound?
Its solubility (mole fraction) is 0.0729.

What about the solubility (mole fraction) (in 2-methoxyethanol, 283.15 K) of the same compound?
Its solubility (mole fraction) is 0.0819.

And the solubility (mole fraction) (in 2-methoxyethanol, 288.15 K)?
Its solubility (mole fraction) is 0.0921.

What about the solubility (mole fraction) (in 2-methoxyethanol, 293.15 K) of the same compound?
Its solubility (mole fraction) is 0.103.

And the solubility (mole fraction) (in 2-methoxyethanol, 298.15 K)?
The solubility (mole fraction) was 0.115.

And the solubility (mole fraction) (in 2-methoxyethanol, 303.15 K)?
Its solubility (mole fraction) is 0.129.

What about the solubility (mole fraction) (in 2-methoxyethanol, 308.15 K) of the same compound?
The solubility (mole fraction) was 0.142.

And the solubility (mole fraction) (in 2-methoxyethanol, 313.15 K)?
The solubility (mole fraction) was 0.159.

And the solubility (mole fraction) (in 2-methoxyethanol, 318.15 K)?
The solubility (mole fraction) was 0.173.

What about the solubility (mole fraction) (in 2-methoxyethanol, 323.15 K) of the same compound?
The solubility (mole fraction) was 0.191.

And the solubility (mole fraction) (in DMF, 278.15 K)?
The solubility (mole fraction) was 0.177.

And the solubility (mole fraction) (in DMF, 283.15 K)?
The solubility (mole fraction) was 0.191.

What about the solubility (mole fraction) (in DMF, 288.15 K) of the same compound?
Its solubility (mole fraction) is 0.205.

What about the solubility (mole fraction) (in DMF, 293.15 K) of the same compound?
The solubility (mole fraction) was 0.221.

And the solubility (mole fraction) (in DMF, 298.15 K)?
The solubility (mole fraction) was 0.235.

And the solubility (mole fraction) (in DMF, 303.15 K)?
The solubility (mole fraction) was 0.251.

What about the solubility (mole fraction) (in DMF, 308.15 K) of the same compound?
The solubility (mole fraction) was 0.267.

And the solubility (mole fraction) (in DMF, 313.15 K)?
The solubility (mole fraction) was 0.285.

And the solubility (mole fraction) (in DMF, 318.15 K)?
Its solubility (mole fraction) is 0.302.

What about the solubility (mole fraction) (in DMF, 323.15 K) of the same compound?
Its solubility (mole fraction) is 0.321.
